Data set [1] deals with Caco-2 cells. Put plainly: Caco-2 membrane permeability, improved method as used in the following Examples (96-well, 20 to 24 h preincubation). Format: in vitro ADME. The procedure, abridged:
(§1)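 Caco-2 monolayers were grown three weeks and preincubated 20–24 h at 37 °C with compound in DMEM+FaSSIF (1% DMSO) apically. The assay then used compound in FaSSIF/HBSS (1% DMSO, pH 6.0) apically and HBSS with 4% BSA (pH 7.4) basally. Basal samples were taken at 180 min for LC/MS, and Papp (cm/sec) was calculated.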
(In general: Caco-2 monolayers are a common model of the intestinal barrier.)

Experiment in data set [2]: as above
It is filed as in vitro ADME. The conditions noted are these: human, Caco-2, Caco-2 (cm/sec). In outline:
as §1

Data set [3] relates to Caco-2 cells. The conditions noted are these: Ozeki et al. 2015, cited from earlier work; for decrease in the concentration on the Apical side: 120 minutes of incubation.

Starred links: 1 amine or outer side, 2 acyl side, 3 side chain; linkers in the order of their positions; H or OH if unused. Positions of bridges follow the written chain, without caps; N, C: chain ends. Non-standard residues stand in square brackets, D forms with d. Residues, ends and D or L forms follow the SMILES beside them. *: point of attachment. X1 = CC(CC(=O)[*:2])C(=O)[C@@H](N[*:1])[C@@H](C)O; NMePhe(3-Cl) = CN[C@@H](Cc1cccc(Cl)c1)C(=O)O; hPhe(4-Cl) = N[C@@H](CCc1ccc(Cl)cc1)C(=O)O; NMeF = CN[C@@H](Cc1ccccc1)C(=O)O; NMeGABA = CN(CCCC(=O)[*:2])[*:1]; NMeD = CN[C@@H](CC(=O)O)C(=O)O; NMeL = CN[C@@H](CC(C)C)C(=O)O; NMeV = CN[C@H](C(=O)O)C(C)C; NMeA = CN[C@@H](C)C(=O)O; Piperidide = C1CCN(*)CC1; dNMeA = CN[C@H](C)C(=O)O; NBuGly = CCCCNCC(=O)O; Ethyl(2-OH) = OCC*; Sar = CNCC(=O)O; tBu = CC(C)(C)*

The values that follow come from patent US20200131669A1, “CYCLIC PEPTIDE COMPOUND HAVING HIGH MEMBRANE PERMEABILITY, AND LIBRARY CONTAINING SAME” (Chugai Seiyaku Kabushiki Kaisha, priority 2017, published 2020).

As a reminder, the Papp A→B is the apparent permeability from the apical to the basolateral side of a cell layer. Lower therefore signals poor permeation. Consider `CC(C)C[C@H]1C(=O)N[C@@H]([C@@H](C)O)C(=O)N(C)CC(=O)N(C)[C@@H](C(C)C)C(=O)N[C@@H](Cc2ccccc2)C(=O)N(C)[C@@H](Cc2cccc(Cl)c2)C(=O)N(C)[C@@H](CC(C)C)C(=O)N(C)[C@H](C(=O)N2CCCCC2)CC(=O)N(C)[C@H](C)C(=O)N[C@@H](Cc2ccccc2)C(=O)N[C@@H](COC(C)(C)C)C(=O)N1C` [pd167] ([dNMeA]FS(tBu)[NMeL]T[Sar][NMeV]F[NMePhe(3-Cl)][NMeL][NMeD]-Piperidide; lactam N-11), for which the “Caco-2” value in the data set with Caco-2 cells [1] (Caco-2) turned out to be 1.7e-06 cm/s. In data set [2], the Papp A→B at 180 min was 1.7 ×10⁻⁶ cm/s.

Regarding `COCCc1ccc(OCC(O)CNC(C)C)cc1` (stereo not shown) [metoprolol], in the data set with Caco-2 cells [3], the “decrease in the concentration on the Apical side” value is “approximately 20%”.

As to `CC(C)C[C@H]1C(=O)N[C@@H]([C@@H](C)O)C(=O)N(C)CC(=O)N(C)[C@@H](C(C)C)C(=O)N[C@@H](Cc2ccccc2)C(=O)N(C)[C@@H](Cc2cccc(Cl)c2)C(=O)N(C)[C@@H](CC(C)C)C(=O)N(C)[C@H](C(=O)N2CCCCC2)CC(=O)N2CCC[C@@H]2C(=O)N[C@@H](Cc2ccccc2)C(=O)N[C@@H](COC(C)(C)C)C(=O)N1C` [pd163] ([dP]FS(tBu)[NMeL]T[Sar][NMeV]F[NMePhe(3-Cl)][NMeL][NMeD]-Piperidide; lactam N-11), the “Caco-2” value with Caco-2 cells [1] (Caco-2) was found to be 1.7e-06 cm/s. Besides, the apical-to-basolateral permeability (Papp A→B) at 180 min in data set [2] stood at 1.7 ×10⁻⁶ cm/s.

`CC(C)C[C@H]1C(=O)N[C@@H]([C@@H](C)O)C(=O)C(C)CC(=O)N(C)[C@@H](C(C)C)C(=O)N[C@@H](Cc2ccccc2)C(=O)N(C)[C@@H](Cc2cccc(Cl)c2)C(=O)N(C)[C@@H](CC(C)C)C(=O)N(C)[C@H](C(=O)N2CCCCC2)CC(=O)N2CCC[C@H]2C(=O)N[C@@H](Cc2ccccc2)C(=O)N[C@@H](COC(C)(C)C)C(=O)N1C` (stereo partly shown) [pd162] (PFS(tBu)[NMeL][X1][NMeV]F[NMePhe(3-Cl)][NMeL][NMeD]-Piperidide; lactam N-10): the “Caco-2” value with Caco-2 cells [1] (Caco-2) was found to be 1.2e-06 cm/s. The compound also displayed an apical-to-basolateral permeability (Papp A→B) at 180 min in data set [2] of 1.2 ×10⁻⁶ cm/s.

In the data set with Caco-2 cells [1] (human, Caco-2, 180 min), `CC(C)C[C@H]1C(=O)N[C@H](C(=O)N2CCCCC2)CC(=O)N(C)[C@@H](C)C(=O)N[C@@H](CCc2ccc(Cl)cc2)C(=O)N(C)[C@@H](CC(C)C)C(=O)N(C)[C@@H](CC(C)C)C(=O)N[C@@H](C)C(=O)N(C)[C@@H](Cc2ccccc2)C(=O)N(C)[C@@H](C(C)C)C(=O)N[C@@H]([C@@H](C)O)C(=O)N(C)CC(=O)N1C` [pd361] ([NMeA][hPhe(4-Cl)][NMeL][NMeL]A[NMeF][NMeV]T[Sar][NMeL]D-Piperidide; lactam N-11) displayed a Caco-2 of 1.1e-06 cm/s.

`CC(C)C[C@H]1C(=O)N[C@@H](C(C)C)C(=O)N(C)[C@@H](Cc2ccccc2)C(=O)N(C)[C@@H](Cc2ccccc2)C(=O)N[C@@H](COC(C)(C)C)C(=O)N(C)[C@@H](CC(C)C)C(=O)N[C@@H](COCCO)C(=O)N(C)[C@@H](CC(C)C)C(=O)N(C)[C@@H](CC(C)C)C(=O)N[C@H](C(=O)N2CCCCC2)CC(=O)N(C)CCCC(=O)N1C` [pd498] ([NMeGABA][NMeL]V[NMeF][NMeF]S(tBu)[NMeL]S(Ethyl(2-OH))[NMeL][NMeL]D-Piperidide; lactam N-11) returned a Caco-2 in the data set on Caco-2 cells [1] (human, Caco-2, 180 min) of 1.1e-06 cm/s.

Regarding `CC(C)C[C@H]1C(=O)N[C@@H](COC(C)(C)C)C(=O)N(C)[C@@H](Cc2ccccc2)C(=O)N(C)[C@@H](C(C)C)C(=O)N[C@H](C(=O)N2CCCCC2)CC(=O)N[C@H](C(C)C)C(=O)N(C)[C@@H](C)C(=O)N[C@@H](CCc2ccc(Cl)cc2)C(=O)N(C)[C@@H](CC(C)C)C(=O)N[C@@H]([C@@H](C)O)C(=O)N(C)CC(=O)N1C` [pd359] ([dV][NMeA][hPhe(4-Cl)][NMeL]T[Sar][NMeL]S(tBu)[NMeF][NMeV]D-Piperidide; lactam N-11), the Caco-2 in the data set on Caco-2 cells [1] (human, Caco-2, 180 min) was determined as 1.1e-06 cm/s.

Regarding `CC(C)NCC(O)COc1cccc2ccccc12` (stereo not shown) [propranolol], in the data set with Caco-2 cells [3], the “decrease in the concentration on the Apical side” value is given as “approximately 40%” and the “added drug distributed in the cells after completion of incubation” value is on record as “approximately 8%”.

Regarding `CCCCN1CC(=O)N(C)[C@@H](Cc2ccccc2)C(=O)N(C)[C@@H](CC(C)C)C(=O)N[C@@H](COC(C)(C)C)C(=O)N(C)[C@@H](CC(C)C)C(=O)N[C@H](C(=O)N2CCCCC2)CC(=O)N(C)CC(=O)N(C)[C@@H](Cc2ccccc2)C(=O)N[C@@H](C(C)C)C(=O)N(C)[C@@H](CC(C)C)C(=O)N[C@@H](COCCO)C1=O` [pd501] ([Sar][NMeF]V[NMeL]S(Ethyl(2-OH))[NBuGly][NMeF][NMeL]S(tBu)[NMeL]D-Piperidide; lactam N-11), the Caco-2 with Caco-2 cells [1] (human, Caco-2, 180 min) was found to be 1.1e-06 cm/s.
